The first test has as its system Achromobacter sp. MTCC 5605. Briefly: Antibiotic sensitivity of the isolated strain. Format: cell-based.
Settings: not given
For `COc1cccc(OC)c1C(=O)N[C@@H]1C(=O)N2[C@@H]1SC(C)(C)[C@@H]2C(=O)O` [Methicillin], the Antibiotic sensitivity result is “Resistant to Penicillin-G (10 units), Methicillin (5 mcg),”.
In the case of `O=C(O)c1cn(C2CC2)c2cc(N3CCNCC3)c(F)cc2c1=O` [Ciprofloxacin], the Antibiotic sensitivity result is reported as “Sensitive to Erythromycin (10 mcg), Gentamycin (10 mcg),”.
As for `CC1(C)S[C@@H]2[C@H](NC(=O)Cc3ccccc3)C(=O)N2[C@H]1C(=O)O` [Penicillin-G], the Antibiotic sensitivity result was “Resistant to Penicillin-G (10 units), Methicillin (5 mcg),”.
For the molecule `C[C@@H]1[C@H](O)[C@@H](C)/C=C/C=C/C=C/C=C/C=C/C=C/C=C/[C@H](O[C@@H]2O[C@H](C)[C@@H](O)[C@H](N)[C@@H]2O)C[C@@H]2O[C@](O)(C[C@@H](O)C[C@@H](O)[C@H](O)CC[C@@H](O)C[C@@H](O)CC(=O)O[C@H]1C)C[C@H](O)[C@H]2C(=O)O` [Amphotericin B], the Antibiotic sensitivity entry is “Resistant to Penicillin-G (10 units), Methicillin (5 mcg),”.
For `C[C@@H]1[C@H](O)[C@@H](C)/C=C/C=C/CC/C=C/C=C/C=C/C=C/C(O[C@H]2O[C@H](C)[C@@H](O)[C@H](N)[C@@H]2O)CC2O[C@](O)(CC(O)C(O)CCC(O)CC(O)CC(O)CC(=O)O[C@H]1C)CC(O)C2C(=O)O` (stereo partly drawn) [Nystatin], the Antibiotic sensitivity result was “Resistant to Penicillin-G (10 units), Methicillin (5 mcg),”.
On to `O=C(N[C@H](CO)[C@H](O)c1ccc([N+](=O)[O-])cc1)C(Cl)Cl` [Chloramphenicol], for which the Antibiotic sensitivity entry is reported as “Sensitive to Erythromycin (10 mcg), Gentamycin (10 mcg),”.
`CC[C@H]1OC(=O)[C@H](C)[C@@H](O[C@H]2C[C@@](C)(OC)[C@@H](O)[C@H](C)O2)[C@H](C)[C@@H](O[C@@H]2O[C@H](C)C[C@H](N(C)C)[C@H]2O)[C@](C)(O)C[C@@H](C)C(=O)[C@H](C)[C@@H](O)[C@]1(C)O` [Erythromycin]: the Antibiotic sensitivity result is “Sensitive to Erythromycin (10 mcg), Gentamycin (10 mcg),”.

Still in this test, the particulars now being: amount per antibiotic as printed (5-30 mcg, 10 units).
For the molecule Gentamycin, the Antibiotic sensitivity result is on record as “Sensitive to Erythromycin (10 mcg), Gentamycin (10 mcg),”.

The subject of another test is epoxide hydrolase from Achromobacter sp. MTCC 5605.
Assay: not given
Format: biochemical. As to conditions: pH 8.
As to `O[C@H](CS)[C@H](O)CS` (racemic) [dithiothreitol], the “Inhibition of epoxide hydrolase activity” value is on record as “none of them showed any inhibition”.
Regarding `CCCCCCCCCCCCOS(=O)(=O)[O-].[Na+]` [sodium dodecyl sulphate], the “Inhibition of epoxide hydrolase activity” value was “none of them showed any inhibition”.
For the molecule `NNc1ccccc1` [phenyl hydrazine], the “Inhibition of epoxide hydrolase activity” value is listed as “none of them showed any inhibition”.
Consider `O=C(O)CN(CCN(CC(=O)O)CC(=O)O)CC(=O)O` [ethylenediaminetetraacetic acid], for which the “Inhibition of epoxide hydrolase activity” value is listed as “none of them showed any inhibition”.
`CCOC(=O)OC(=O)OCC` [diethyl pyrocarbonate]: the “Inhibition of epoxide hydrolase activity” value was “none of them showed any inhibition”.
On to `NO` [hydroxylamine], for which the “Inhibition of epoxide hydrolase activity” value is “none of them showed any inhibition”.
As for `CCCCCCCCCCCCCCCC[N+](C)(C)C.[Br-]` [cetyltrimethylammonium bromide], the “Inhibition of epoxide hydrolase activity” value was “none of them showed any inhibition”.

The values above are taken from patent publication US9150840B2, “Isolated bacterial strain of Achromobacter sp. MTCC 5605 and a highly enantioselective epoxide hydrolase isolated therefrom” (COUNCIL OF SCIENTIFIC & INDUSTRIAL RESEARCH, priority 2011, dated 2015).
